Target: T1, Human complement C1s enzyme (Homo sapiens, UniProt P09871)
T1 construct: purified from human serum, Complement Technology, Inc; purchased Complement Technology, Inc; host or cells: human serum (plasma-derived native protein)
T1 sequence (P09871 438-688 limits assumed): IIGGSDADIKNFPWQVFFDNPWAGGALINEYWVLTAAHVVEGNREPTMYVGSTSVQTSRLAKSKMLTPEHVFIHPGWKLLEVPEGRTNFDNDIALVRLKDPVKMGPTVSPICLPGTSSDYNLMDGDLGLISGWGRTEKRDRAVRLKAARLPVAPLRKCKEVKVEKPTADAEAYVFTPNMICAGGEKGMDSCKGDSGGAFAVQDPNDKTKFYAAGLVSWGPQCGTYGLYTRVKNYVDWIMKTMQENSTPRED
T1 sequence (P09871 16-437 partner limits assumed): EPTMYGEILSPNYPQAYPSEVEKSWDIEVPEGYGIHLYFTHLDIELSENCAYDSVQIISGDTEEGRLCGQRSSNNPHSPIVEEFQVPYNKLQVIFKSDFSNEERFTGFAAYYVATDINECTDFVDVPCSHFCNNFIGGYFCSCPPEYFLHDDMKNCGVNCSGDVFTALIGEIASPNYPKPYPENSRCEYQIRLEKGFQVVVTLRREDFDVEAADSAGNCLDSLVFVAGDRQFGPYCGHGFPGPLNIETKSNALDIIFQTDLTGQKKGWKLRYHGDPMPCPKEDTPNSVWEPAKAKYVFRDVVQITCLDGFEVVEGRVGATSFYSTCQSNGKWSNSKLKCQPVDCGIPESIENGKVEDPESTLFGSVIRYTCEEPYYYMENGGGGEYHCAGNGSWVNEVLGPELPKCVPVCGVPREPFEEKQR
Assay: Human C1s enzyme assay
Type: biochemical
Conditions: human complement C1s enzyme 1.16 nM, substrate Z-L-Lys-SBzl, A405; read-out: IC50 (Stars)
Method in brief: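 Serum-purified human C1s (1.16 nM final) preincubated 5 min at room temperature with compound in 50 mM Tris, 1 M NaCl, pH 7.5. Z-L-Lys-SBzl and DTNB added at 100 μM each; A405 recorded every 30 s. IC50 from nonlinear regression of reaction rates versus compound concentration.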

Structure (SMILES)	IC50 [nM]
O=C(Cn1c(-c2ccccc2)cnc(NCc2ccc3oc4ccccc4c3c2)c1=O)NCc1cc2cnccc2[nH]1 [Compound 176, N-((1H-pyrrolo[3,2-c]pyridin-2-yl)methyl)-2-(3-((dibenzo [b,d]furan-2-ylmethyl)amino)-2-oxo-6-phenylpyrazin-1(2H)-yl)acetamide]	< 100
O=C(Cn1c(-c2ccccc2)cnc(NC(=O)c2ccc(Oc3ccccc3)cc2)c1=O)NCc1cc2cnccc2[nH]1 [Compound 177, N-(4-(2-(((1H-pyrrolo[3,2-c]pyridin-2-yl)methyl)amino)-2-oxoethyl)-3-oxo-5-phenyl-3,4-dihydropyrazin-2-yl)-4-phen-oxybenzamide]	< 100
O=C(Cn1c(-c2ccccc2)cnc(NC(=O)c2ccc3c(c2)-c2ccccc2C3(F)F)c1=O)NCc1cc2cnccc2[nH]1 [Compound 179, N-(4-(2-(((1H-pyrrolo[3,2-c]pyridin-2-yl)methyl)amino)-2-oxoethyl)-3-oxo-5-phenyl-3,4-dihydropyrazin-2-yl)-9,9-difluoro-9H-fluorene-3-carbox-amide]	< 100
O=C(Cn1c(-c2ccccc2)ncc(N2Cc3ccccc3C2)c1=O)NCc1cc2cnccc2[nH]1 [Compound 184, N-((1H-pyrrolo[3,2-c]pyridine-2-yl)methyl)-2-(5-(isoindolin-2-yl)-6-oxo-2-phenylpyrimidin-1(6H)-yl)acetamide]	> 1000
O=C(Cn1c(-c2ccccc2)ncc(NCCCO[C@@H]2CO[C@H]3[C@@H]2OC[C@H]3O)c1=O)NCc1cc2cnccc2[nH]1 [Compound 190, N-((1H-pyrrolo[3,2-c]pyridine-2-yl)methyl)-2-(5-((3-(((3R,3aR,6R,6aR)-6-hydroxyhexahydrofuro[3,2-b]furan-3-yl)oxy)propyl)amino)-6-oxo-2-phenylpyrimidin-1(6H)-yl)acetamide]	< 100
O=C(Cn1c(-c2ccccc2)ncc(NC(=O)c2ccc3c(c2)C(F)(F)c2ccccc2-3)c1=O)NCc1cc2cnccc2[nH]1 [Compound 204, N-(1-(2-(((1H-pyrrolo[3,2-c]pyridin-2-yl)methyl)amino)-2-oxoethyl)-6-oxo-2-phenyl-1,6-dihydropyrimidin-5-yl)-9,9-difluoro-9H-fluorene-2-carbox-amide]	< 100
O=C(Cn1c(-c2ccccc2)ncc(NC(=O)c2coc(-c3cccc(F)c3)n2)c1=O)NCc1cc2cnccc2[nH]1 [Compound 205, N-(1-(2-(((1H-pyrrolo[3,2-c]pyridine-2-yl)methyl)amino)-2-oxoethyl)-6-oxo-2-phenyl-1,6-dihydropyrimidin-5-yl)-2-(3-fluorophenyl)oxazole-4-carboxamide]	< 100
O=C(Cc1cc(NCCCc2ccccc2)cnc1-c1ccccc1)NCc1cc2cnccc2[nH]1 [Compound 207, N-((1H-pyrrolo[3,2-c]pyridine-2-yl)methyl)-2-(2-phenyl-5-((3-phenylpropyl)amino)146yridine-3-yl)acetamide]	> 1000
O=C(Cn1c(-c2ccccc2)ncc(NC(=O)c2nc(-c3ccccc3)cs2)c1=O)NCc1cc2cnccc2[nH]1 [Compound 208, N-(1-(2-(((1H-pyrrolo[3,2-c]pyridin-2-yl)methyl)amino)-2-oxoethyl)-6-oxo-2-phenyl-1,6-dihydropyrimidin-5-yl)-4-phen-ylthiazole-2-carboxamide]	< 100
O=C(Cn1c(-c2ccccc2)ncc(NC(=O)c2cc(-c3ccccc3)cs2)c1=O)NCc1cc2cnccc2[nH]1 [Compound 210, N-(1-(2-(((1H-pyrrolo[3,2-c]pyridin-2-yl)methyl)amino)-2-oxoethyl)-6-oxo-2-phenyl-1,6-dihydropyrimidin-5-yl)-4-phen-ylthiophene-2-carboxamide]	< 100
COc1cccc(-c2nc(C(=O)Nc3cnc(-c4ccccc4)n(CC(=O)NCc4cc5cnccc5[nH]4)c3=O)co2)c1 [Compound 211, N-(1-(2-(((1H-pyrrolo[3,2-c]pyridine-2-yl)methyl)amino)-2-oxoethyl)-6-oxo-2-phenyl-1,6-dihydropyrimidin-5-yl)-2-(3-methoxyphenyl)oxazole-4-carboxamide]	< 100

More lines, now with the values ahead:

IC50 [nM]	Structure (SMILES)
< 100	O=C(Cn1c(-c2ccccc2)ncc(NC(=O)c2ccc(-c3nccs3)cc2)c1=O)NCc1cc2cnccc2[nH]1 [Compound 172, N-(1-(2-(((1H-pyrrolo[3,2-c]pyridine-2-yl)methyl)amino)-2-oxoethyl)-6-oxo-2-phenyl-1,6-dihydropyrimidin-5-yl)-4-(thiazol-2-yl)benzamide]
< 100	O=C(Cn1c(-c2ccccc2)ncc(NC(=O)c2ccc(-c3cnc[nH]3)cc2)c1=O)NCc1cc2cnccc2[nH]1 [Compound 174, N-(1-(2-(((1H-pyrrolo[3,2-c]pyridine-2-yl)methyl)amino)-2-oxoethyl)-6-oxo-2-phenyl-1,6-dihydropyrimidin-5-yl)-4-(1H-imidazol-5-yl)benzamide]
< 100	O=C(Cn1c(-c2ccccc2)ncc(NC(=O)c2ccc(-c3ncc[nH]3)cc2)c1=O)NCc1cc2cnccc2[nH]1 [Compound 175, N-(1-(2-(((1H-pyrrolo[3,2-c]pyridin-2-yl)methyl)amino)-2-oxoethyl)-6-oxo-2-phenyl-1,6-dihydropyrimidin-5-yl)-4-(1H-imidazol-2-yl)benzamide]
< 100	CC1(c2ccc(CCCNc3cnc(-c4ccccc4)n(CC(=O)NCc4cc5cnccc5[nH]4)c3=O)cc2)COC1 [Compound 180, N-((1H-pyrrolo[3,2-c]pyridine-2-yl)methyl)-2-(5-((3-(4-(3-methyloxetan-3-yl)phenyl)propyl)amino)-6-oxo-2-phenylpyrimidin-1(6H)-yl)acetamide]
< 100	CO[C@@H]1CO[C@H]2[C@@H]1OC[C@H]2Oc1ccc(-c2ncc(NCCCc3ccccc3)c(=O)n2CC(=O)NCc2cc3cnccc3[nH]2)cc1 [Compound 189, N-((1H-pyrrolo[3,2-c]pyridine-2-yl)methyl)-2-(2-(4-(((3R,3aR,6R,6aR)-6-methoxyhexahydrofuro[3,2-b]furan-3-yl)oxy)phenyl)-6-oxo-5-((3-phenylpropyl)amino)pyrimidin-1(6H)-yl)acetamide]
< 100	CO[C@@H]1CO[C@H]2[C@@H]1OC[C@H]2Oc1ccc(CCCNc2cnc(-c3ccccc3)n(CC(=O)NCc3cc4cnccc4[nH]3)c2=O)cc1 [Compound 192, N-((1H-pyrrolo[3,2-c]pyridine-2-yl)methyl)-2-(5-((3-(4-(((3R,3aR,6R,6aR)-6-methoxyhexahydrofuro[3,2-b]furan-3-yl)oxy)phenyl)propyl)amino)-6-oxo-2-phenylpyrimidin-1(6H)-yl)acetamide]
< 100	O=C(Cn1c(-c2ccccc2)ncc(NCCCc2ccc(OC3CS(=O)(=O)C3)cc2)c1=O)NCc1cc2cnccc2[nH]1 [Compound 193, N-((1H-pyrrolo[3,2-c]pyridine-2-yl)methyl)-2-(5-((3-(4-((1,1-dioxidothietan-3-yl)oxy)phenyl)propyl)amino)-6-oxo-2-phenylpyrimidin-1(6H)-yl) acetamide]
< 100	CS(=N)(=O)c1ccc(-c2ncc(NCCCc3ccccc3)c(=O)n2CC(=O)NCc2cc3cnccc3[nH]2)cc1 (centres unmarked) [Compound 200, N-((1H-pyrrolo[3,2-c]pyridine-2-yl)methyl)-2-(2-(4-(S-methylsulfonimidoyl)phenyl)-6-oxo-5-((3-phenylpropyl)amino)pyrimidin-1(6H)-yl)acetamide]
< 100	O=C(Cn1c(-c2ccccc2)ncc(NC(=O)c2ccc3c(c2)oc2ccccc23)c1=O)NCc1cc2cnccc2[nH]1 [Compound 203, N-(1-(2-(((1H-pyrrolo[3,2-c]pyridin-2-yl)methyl)amino)-2-oxoethyl)-6-oxo-2-phenyl-1,6-dihydropyrimidin-5-yl)dibenzo [b,d]furan-3-carboxamide]
< 100	O=C(Cn1c(-c2ccccc2)ncc(NC(=O)c2ccc(-c3ccccc3)o2)c1=O)NCc1cc2cnccc2[nH]1 [Compound 206, N-(1-(2-(((1H-pyrrolo[3,2-c]pyridin-2-yl)methyl)amino)-2-oxoethyl)-6-oxo-2-phenyl-1,6-dihydropyrimidin-5-yl)-5-phen-ylfuran-2-carboxamide]
< 100	O=C(Cn1c(-c2ccccc2)ncc(NC(=O)c2csc(-c3ccccc3)n2)c1=O)NCc1cc2cnccc2[nH]1 [Compound 209, N-(1-(2-(((1H-pyrrolo[3,2-c]pyridin-2-yl)methyl)amino)-2-oxoethyl)-6-oxo-2-phenyl-1,6-dihydropyrimidin-5-yl)-2-phen-ylthiazole-4-carboxamide]
< 100	O=C(Cn1c(-c2ccccc2)ncc(Nc2ccc(F)cc2)c1=O)NCc1cc2cnccc2[nH]1 [Compound 212, N-((1H-pyrrolo[3,2-c]pyridin-2-yl)methyl)-2-(5-((4-fluoro-phenyl)amino)-6-oxo-2-phen-ylpyrimidin-1(6H)-yl)acet-amide]

From patent US20260184707A1, “PHARMACEUTICAL COMPOUNDS FOR THE TREATMENT OF COMPLEMENT MEDIATED DISORDERS” (ALEXION PHARMACEUTICALS, INC., priority 2022, published 2026)
